Laboratory results reported in US11865125B2, “APKC inhibitors and methods of treating a neurodegenerative disease or disorder” (UNIVERSITY OF SOUTH FLORIDA, priority 2016, dated 2024).
Entries after “also recorded” stand apart in the source; their conditions may differ.

Legend:
recombinant PKC-ι = molecular target: T1, recombinant PKC-ι (Homo sapiens, UniProt P41743); details: cited from earlier work
T1 sequence (P41743 1-596): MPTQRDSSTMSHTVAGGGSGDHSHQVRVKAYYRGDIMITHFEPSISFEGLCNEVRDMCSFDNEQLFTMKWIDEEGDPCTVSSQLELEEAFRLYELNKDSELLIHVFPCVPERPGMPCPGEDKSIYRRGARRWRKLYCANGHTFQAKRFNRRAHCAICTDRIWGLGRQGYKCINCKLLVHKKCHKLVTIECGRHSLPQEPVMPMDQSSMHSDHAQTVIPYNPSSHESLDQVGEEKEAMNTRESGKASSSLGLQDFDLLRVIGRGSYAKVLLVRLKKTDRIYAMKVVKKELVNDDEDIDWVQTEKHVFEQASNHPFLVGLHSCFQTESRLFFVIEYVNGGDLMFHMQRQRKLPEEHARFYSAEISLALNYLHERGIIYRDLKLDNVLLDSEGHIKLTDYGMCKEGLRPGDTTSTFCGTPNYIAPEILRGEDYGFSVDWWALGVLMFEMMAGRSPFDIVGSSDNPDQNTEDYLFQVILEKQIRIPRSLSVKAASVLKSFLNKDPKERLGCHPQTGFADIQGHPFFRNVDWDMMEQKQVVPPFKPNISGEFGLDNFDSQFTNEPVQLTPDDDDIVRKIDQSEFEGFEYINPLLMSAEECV

70 kDa PKC-λ/ι = molecular target: T2, 70 kDa PKC-λ/ι (Mus musculus, UniProt Q62074); assay: brain aPKC (PKC-λ/ι) phosphorylation/activity in mice; type: in vivo
T2 construct: insulin-sensitive 70 kDa PKC-λ/ι in brains of Het-MλKO mice; from tissue; host or cells: mouse brain homogenate
T2 sequence (Q62074 1-595): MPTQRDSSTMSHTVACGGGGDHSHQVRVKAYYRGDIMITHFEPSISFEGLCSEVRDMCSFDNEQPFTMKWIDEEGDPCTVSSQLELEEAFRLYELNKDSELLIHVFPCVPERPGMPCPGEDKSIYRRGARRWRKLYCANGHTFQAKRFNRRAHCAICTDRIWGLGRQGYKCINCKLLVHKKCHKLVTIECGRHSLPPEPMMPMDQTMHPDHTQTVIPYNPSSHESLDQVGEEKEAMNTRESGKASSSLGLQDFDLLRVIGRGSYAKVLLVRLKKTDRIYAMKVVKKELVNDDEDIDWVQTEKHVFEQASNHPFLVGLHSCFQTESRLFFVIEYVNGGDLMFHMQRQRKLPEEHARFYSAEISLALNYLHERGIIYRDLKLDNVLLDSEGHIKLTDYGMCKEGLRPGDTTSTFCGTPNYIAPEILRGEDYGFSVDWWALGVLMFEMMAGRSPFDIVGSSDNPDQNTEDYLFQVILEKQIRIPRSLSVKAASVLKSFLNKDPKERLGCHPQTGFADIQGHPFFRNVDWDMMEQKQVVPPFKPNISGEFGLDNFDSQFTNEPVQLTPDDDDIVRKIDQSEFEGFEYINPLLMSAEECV
Text: Mouse Studies. Brain samples were obtained from normal and insulin-resistant mice and monkeys used previously, and includes mice originally used in studies of insulin signaling and resistance in liver: (a) 4-6 month old C57Bl/6 mice used in studies of high-fat-feeding [USF Vivarium] [6]; 4-6 month-old male C57Bl/6 ob/ob and lean ob+ mice (Jackson Labs, Bar Harbor, Maine); and (c) 10-12 month-old C57Bl/6 Het-MλKO mice [USF Vivarium] [8]. […] Where indicated normal mice were given a single SC injection of saline or saline containing 1.5 mg/kg ICAPP to follow time-related alterations in brain signaling factors. Where indicated, mice were treated intraperitoneally (IP) with insulin (1 U/kg body weight) or vehicle 15-min before euthanization by administration of Xylazine/Ketamine, followed by whole body perfusion with phosphate-buffered saline and rapid removal of brain and other tissues.
Tissue Preparations. As described, mouse brains were hemisected sagittally, and one-half was frozen in liquid N2, stored at −80° C., and samples thereof were homogenized in buffer containing 0.25M sucrose, 20 mM Tris/HCl (pH, 7.5), 2 mmol/l EGTA, 2 mM EDTA, 1 mM phenlysulfonoylfluoride (PMSF), 20 μg/ml leupeptin, 10 μg/ml aprotinin, 2 mM Na4P2O7, 2 mM Na3VO4, 2 mM NaF, and 1 μM microcystin, and then supplemented with 1% TritonX-100, 0.6% Nonidet and 150 mM NaCl.
Western Analyses. As described, Western analyses were conducted with rabbit antisera or mouse monoclonal antibodies (mMab), using: anti-aPKC (Santa Cruz Biotechnologies, Santa Cruz, CA); anti-phospho-threonine-560/555-PKC-ζ/λ/ι (Invitrogen, Carlsbad, CA); anti-p-serine-256-FoxO1 and anti-FoxO1 (Abnova, Walnut, CA); anti-Akt (mMab), anti-phospho-serine-473-Akt, anti-phospho-serine-9-GSK3P anti-GSK313, anti-phospho-serine-253-FoxO3a, anti-FoxO3a, anti-phospho-serine-256-FoxO1, anti-phospho-serine-193-FoxO4; anti-FoxO1, anti-phospho-serine-2448-mTOR, anti-mTOR, anti-β-amyloid (anti-5-10 kDa-Aβ1-40/42) and anti-amyloid precursor protein (anti-120 kDa-APP) (Cell Signaling Technologies, Danvers, MA); and anti-phospho-serine-202-tau, anti-phospho-threonine-231-tau (Gene Tex, Irvine, CA). Samples from experimental groups were compared on the same blots, and routinely checked with loading controls. Note that: insulin-sensitive 70 kDa aPKC is largely PKC-ζ in mouse brain and orthologous PKC-ι (98% aa homology) in monkey and other primate brains; brain PKC-ζ exists largely as a 50 kDa moiety that, lacking a regulatory domain, is constitutively-active and unresponsive to insulin.
Where indicated, mice were randomly treated with insulin (1 unit/kg/bw i.p.) 15 min before being euthanized by administration of xylazine/ketamine, followed by whole-body perfusion with PBS and rapid removal of brain and other tissues.

## NC(=O)c1ncn([C@@H]2C[C@H](COP(=O)(O)O)[C@@H](O)[C@H]2O)c1N [ICAPP]
Recombinant PKC-ι
  inhibition of recombinant PKC-ι: preferentially inhibit recombinant PKC-ι
Recombinant PKC-ι; previously seen, stated as similar, read-out: IC50, inhibition of recombinant PKC-λ/ι
  IC50: 1 to 10 nM
70 kDa PKC-λ/ι; Het-MλKO mice, s.c. once daily for 8 days (ICAPP 0.4 mg/kg, ATM 60 mg/kg)
  resting/basal brain aPKC (PKC-λ/ι) activity: diminished; also recorded: reductions of resting/basal activities of brain Akt and aPKC, comparable to those seen with ATM treatment
70 kDa PKC-λ/ι; Het-MλKO mice, s.c. once daily for 8 days (ICAPP 0.4 mg/kg, ATM 60 mg/kg), insulin 1 U/kg i.p. 15 min
  acute insulin activation of brain aPKC (PKC-λ/ι): blocked the ability of insulin to activate PKC-λ/ι; also recorded: abrogated
70 kDa PKC-λ/ι; normal mice, single s.c. dose of ICAPP 1.5 mg/kg, insulin 1 U/kg i.p. 15 min before killing
  insulin-dependent brain PKC-λ/ι (aPKC) activity: time-related, well-correlated decreases; also recorded: blocked acute effects of insulin
